Measured values taken from US20120129833A1, “CYCLIC KETOENOLS FOR THERAPY” (BAYER PHARMA AKTIENGESELLSCHAFT, priority 2010, published 2012).
pIC50: −log10 of the molar value.

Columns and labels:
[1] = target: T1, ACC2 (acetyl-CoA carboxylase 2) (Homo sapiens, UniProt O00763); assay: Human ACC2 enzyme assay (HTRF ADP detection); assay type: biochemical; details: 20 μM acetyl-CoA, 15 min pre-incubation, 20 min at 22° C.; read-out: ACC 2 IC50
T1 construct: catalogue no; 50201, amino acids 39—end, expressed in baculovirus-transfected Sf9 insect cells; His (C); purchased BPS Bioscience (San Diego, Calif.) 50201; host or cells: baculovirus-transfected Sf9 insect cells
T1 sequence (O00763 39-2458 limits assumed): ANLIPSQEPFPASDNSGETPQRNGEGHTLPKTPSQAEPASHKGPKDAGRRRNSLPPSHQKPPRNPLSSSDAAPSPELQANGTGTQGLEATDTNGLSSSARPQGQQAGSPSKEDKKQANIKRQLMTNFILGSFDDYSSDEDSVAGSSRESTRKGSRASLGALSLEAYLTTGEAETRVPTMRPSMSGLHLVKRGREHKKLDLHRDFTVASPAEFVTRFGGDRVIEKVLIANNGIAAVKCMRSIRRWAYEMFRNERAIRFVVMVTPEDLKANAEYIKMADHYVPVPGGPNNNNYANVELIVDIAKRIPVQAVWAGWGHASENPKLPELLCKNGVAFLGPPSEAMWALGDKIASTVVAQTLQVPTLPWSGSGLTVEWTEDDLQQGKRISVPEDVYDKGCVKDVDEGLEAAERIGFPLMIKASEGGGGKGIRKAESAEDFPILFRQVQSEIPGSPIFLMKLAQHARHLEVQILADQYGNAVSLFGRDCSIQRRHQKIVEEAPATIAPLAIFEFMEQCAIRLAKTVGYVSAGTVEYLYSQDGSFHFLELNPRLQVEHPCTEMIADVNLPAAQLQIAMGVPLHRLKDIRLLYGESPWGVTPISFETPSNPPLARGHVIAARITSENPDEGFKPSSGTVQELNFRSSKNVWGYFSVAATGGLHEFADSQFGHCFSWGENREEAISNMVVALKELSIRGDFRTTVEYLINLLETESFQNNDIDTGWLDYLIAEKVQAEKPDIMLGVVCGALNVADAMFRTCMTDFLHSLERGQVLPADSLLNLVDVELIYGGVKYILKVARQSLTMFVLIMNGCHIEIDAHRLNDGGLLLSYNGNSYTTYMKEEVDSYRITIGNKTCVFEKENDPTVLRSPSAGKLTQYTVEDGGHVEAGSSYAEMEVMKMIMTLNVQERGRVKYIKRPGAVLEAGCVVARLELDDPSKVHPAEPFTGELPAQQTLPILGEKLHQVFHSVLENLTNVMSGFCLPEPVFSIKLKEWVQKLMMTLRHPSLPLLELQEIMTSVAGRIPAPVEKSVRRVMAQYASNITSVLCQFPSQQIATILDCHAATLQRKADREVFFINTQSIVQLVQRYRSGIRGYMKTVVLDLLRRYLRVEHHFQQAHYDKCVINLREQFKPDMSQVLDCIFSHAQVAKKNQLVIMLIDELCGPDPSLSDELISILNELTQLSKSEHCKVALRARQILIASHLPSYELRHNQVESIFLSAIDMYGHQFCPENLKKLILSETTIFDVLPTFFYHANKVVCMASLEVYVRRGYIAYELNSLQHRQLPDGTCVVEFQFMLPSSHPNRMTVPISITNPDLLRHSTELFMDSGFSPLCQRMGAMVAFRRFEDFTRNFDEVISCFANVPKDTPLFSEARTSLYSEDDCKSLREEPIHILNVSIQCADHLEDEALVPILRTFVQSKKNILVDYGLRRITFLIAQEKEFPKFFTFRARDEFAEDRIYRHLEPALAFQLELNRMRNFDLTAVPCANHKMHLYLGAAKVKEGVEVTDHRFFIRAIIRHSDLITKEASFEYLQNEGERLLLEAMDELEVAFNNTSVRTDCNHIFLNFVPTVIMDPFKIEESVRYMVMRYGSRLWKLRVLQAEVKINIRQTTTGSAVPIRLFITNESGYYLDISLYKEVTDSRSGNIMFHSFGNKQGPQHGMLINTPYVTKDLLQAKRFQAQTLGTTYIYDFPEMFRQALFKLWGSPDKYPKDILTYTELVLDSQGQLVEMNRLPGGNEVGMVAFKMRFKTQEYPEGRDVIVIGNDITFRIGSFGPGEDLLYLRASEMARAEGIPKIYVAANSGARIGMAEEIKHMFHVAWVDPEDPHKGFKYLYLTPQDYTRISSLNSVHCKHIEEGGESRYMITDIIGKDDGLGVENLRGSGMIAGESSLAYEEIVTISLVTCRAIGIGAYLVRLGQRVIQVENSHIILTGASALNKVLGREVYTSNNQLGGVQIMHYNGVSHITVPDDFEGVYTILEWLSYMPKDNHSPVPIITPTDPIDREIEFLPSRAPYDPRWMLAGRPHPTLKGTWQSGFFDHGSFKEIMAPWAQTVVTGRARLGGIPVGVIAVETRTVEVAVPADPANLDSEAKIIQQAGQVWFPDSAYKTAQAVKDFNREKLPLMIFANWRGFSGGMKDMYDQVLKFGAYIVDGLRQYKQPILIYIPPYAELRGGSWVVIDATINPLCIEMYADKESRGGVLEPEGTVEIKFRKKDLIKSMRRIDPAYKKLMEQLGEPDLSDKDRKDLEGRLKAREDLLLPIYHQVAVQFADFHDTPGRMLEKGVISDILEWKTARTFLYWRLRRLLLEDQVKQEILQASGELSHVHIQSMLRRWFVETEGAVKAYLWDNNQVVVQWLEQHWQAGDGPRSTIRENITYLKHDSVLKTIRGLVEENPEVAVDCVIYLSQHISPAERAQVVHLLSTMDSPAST
Experimental: The inhibitory activity of the substances of this invention with regard to acetyl-CoA carboxylase 2 (ACC2) was measured using the ACC2 assay described in the paragraphs below. The basic principle of the assay is the measurement of adenosine diphosphate (ADP), which is formed as a by-product, by means of an HTRF®-based competitive immunoassay (HTRF=Homogeneous Time Resolved Fluorescence).
(§1) The amount of complex of d2-labelled ADP and europium cryptate-labelled anti-ADP antibody was then determined by measuring the resonance energy transfer of europium cryptate to d2.

[2] = target: T2, recombinant human ACC1 (acetyl-CoA carboxylase 1) (Homo sapiens, UniProt Q13085); assay: Human ACC1 enzyme assay (HTRF ADP detection); assay type: biochemical; details: 50 μM ATP, 20 μM acetyl-CoA, 15 min pre-incubation, 20 min at 22° C.; read-out: ACC 1 IC50;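 further: ADP by-product quantified by competitive HTRF immunoassay with europium cryptate anti-ADP antibody and d2-labelled ADP, read after 1 h binding at 22 °C, enzyme near 2.5 ng/µl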
T2 construct: NM_198834, amino acids 39—end; FLAG (C); made in house; host or cells: baculovirus-transfected insect cells (Hi5)
Experimental: The basic principle of the assay is the measurement of adenosine diphosphate (ADP), which is formed as a by-product, by means of an HTRF®-based competitive immunoassay (HTRF=Homogeneous Time Resolved Fluorescence).
as §1

SMILES	pIC50 [1]	pIC50 [2]
Cc1ccc(-c2ccc(Cl)cc2)cc1C1=C(O)[C@@]2(CC[C@H](OCC(C)C)C2)NC1=O (relative stereo) [Example 1-49, rel-(5R,7R)-3-(4′-chloro-4-methylbiphenyl-3-yl)-4-hydroxy-7-(2-methylpropoxy)-1-azaspiro[4.4]non-3-en-2-one]	5.00	6.62
CCOCCO[C@@H]1CC[C@@]2(C1)NC(=O)C(c1cc(-c3ccc(Cl)cc3)ccc1C)=C2O (relative stereo) [Example 1-50, rel-(5R,7S)-3-(4′-chloro-4-methylbiphenyl-3-yl)-7-(2-ethoxyethoxy)-4-hydroxy-1-azaspiro[4.4]non-3-en-2-one]	5.20	6.33
COCCO[C@@H]1CCC[C@]2(C1)NC(=O)C(c1cc(-c3ccc(Cl)cc3)ccc1Cl)=C2O (relative stereo) [Example 1-74, rel-(5R,7R)-3-(4,4′-dichlorobiphenyl-3-yl)-4-hydroxy-7-(2-methoxyethoxy)-1-azaspiro[4.5]dec-3-en-2-one]	4.78	6.18
Cc1ccc(-c2ccc(Cl)cc2)c(C)c1C1=C(O)C2(CCOCC2)NC1=O [Example 1-1, 3-(4′-chloro-2,4-dimethylbiphenyl-3-yl)-4-hydroxy-8-oxa-1-azaspiro[4.5]dec-3-en-2-one]	5.06	6.34
Cc1ccc(-c2ccc(Cl)cc2)cc1C1=C(O)C2(CCOC(C)C2)NC1=O (stereo not drawn) [Example 1-3, 3-(4′-chloro-4-methylbiphenyl-3-yl)-4-hydroxy-7-methyl-8-oxa-1-azaspiro[4.5]dec-3-en-2-one]	5.27	6.35
Cc1ccc(-c2ccc(Cl)cc2)c(C)c1C1=C(O)C2(CCC(C)CC2)NC1=O (stereo not drawn) [Example 1-4, 3-(4′-chloro-2,4-dimethylbiphenyl-3-yl)-4-hydroxy-8-methyl-1-azaspiro[4.5]dec-3-en-2-one]	6.48	6.34
Cc1ccc(-c2ccc(Cl)cc2)c(C)c1C1=C(O)C2(CCC3(CC2)OCC(C)O3)NC1=O (stereo not drawn) [Example 1-62, 11-(4′-chloro-2,4-dimethylbiphenyl-3-yl)-12-hydroxy-2-methyl-1,4-dioxa-9-azadispiro[4.2.4.2]tetradec-11-en-10-one]		6.16
COC1CCC2(CC1)NC(=O)C(c1cc(-c3ccc(Cl)c(Cl)c3)ccc1C)=C2O (stereo not drawn) [Example 1-81, 3-(3′,4′-dichloro-4-methylbiphenyl-3-yl)-4-hydroxy-8-methoxy-1-azaspiro[4.5]dec-3-en-2-one]	5.85	
Cc1ccc(-c2ccc(Cl)cc2)cc1C1=C(O)C2(CC2)NC1=O [Example 1-84, 6-(4′-chloro-4-methylbiphenyl-3-yl)-7-hydroxy-4-azaspiro[2.4]hept-6-en-5-one]		6.34
CCCC1CCC2(CC1)OC(=O)C(c1cc(-c3ccc(Cl)cc3)ccc1C)=C2O (stereo not drawn) [Example 2-36, 3-(4′-chloro-4-methylbiphenyl-3-yl)-4-hydroxy-8-propyl-1-oxaspiro[4.5]dec-3-en-2-one]	5.71	
COC1CCC2(CC1)SC(=O)C(c1cc(-c3ccc(Cl)cc3)ccc1C)=C2O (stereo not drawn) [Example 3-1, 3-(4′-chloro-4-methylbiphenyl-3-yl)-4-hydroxy-8-methoxy-1-thiaspiro[4.5]dec-3-en-2-one]		6.07
Cc1ccc(-c2ccc(Cl)c(Cl)c2)cc1-c1c(O)c2ccc(Cl)cc2[nH]c1=O [Example 9-7, 7-chloro-3-(3′,4′-dichloro-4-methylbiphenyl-3-yl)-4-hydroxyquinolin-2(1H)-one]	5.08	
Cc1cc(C)c(-c2c(O)c3ccc(Cl)cc3[nH]c2=O)cc1-c1ccc(Cl)cc1 [Example 9-12, 7-chloro-3-(4′-chloro-4,6-dimethylbiphenyl-3-yl)-4-hydroxyquinolin-2(1H)-one]		6.24
